The term microsomal CLint denotes the rate of metabolic loss divided by the concentration. A higher microsomal CLint goes with faster metabolism. One may read the hepatocyte CLint as a measure of how fast metabolising enzymes remove a compound, apart from limits set by blood flow. A high value points to rapid turnover. For orientation: Vd means the apparent volume that relates the amount in the body to the concentration in plasma or blood. For orientation: logD means lipophilicity at a set pH, counting ionised and neutral species. A lower logD goes with lower lipophilicity. A word on the clearance: it is the rate of elimination divided by the concentration. Low readings indicate a low capacity for elimination, high ones a high capacity for elimination. A word on the bioavailability: it is dose-corrected exposure relative to a reference, in per cent. The half-life is the time needed for the level to fall by half in the phase considered.

Data set [1] in a line: in vitro. As to conditions: human.
A short description of data set [2]: in vitro. Particulars: rat, hepatocytes.
A short description of data set [3]: in vivo. Particulars: rat, iv.
Data set [4] in a line: physchem. As to conditions: octanol/water.
A short description of data set [5]: in vivo. Particulars: rat, iv. The source holds these as a separate data set.
Data set [6] is described as follows: Oral bioavailability in rat. It counts as ADME, organism-based. As to conditions: in vivo.
Data set [7] is described as follows: in vivo. Particulars: rat, iv. This is another data set of the same source.
A short description of data set [8]: Oral bioavailability in dog. Format: ADME, organism-based, Canis lupus familiaris. As to conditions: in vivo.
Data set [9] is described as follows: in vivo. As to conditions: dog.
A short description of data set [10]: in vivo. Particulars: dog. This is another data set of the same source.
The species entered for data set [11] is Rattus norvegicus. Particulars: in vivo, iv.

SMILES strings stand for the structures.

The compound `O=C(NC[C@@H](O)CN1CCC(Oc2ccc(Cl)c(Cl)c2)CC1)c1c[nH]c(=O)c2cc(S(=O)(=O)N3CCC3)ccc12` came in with an intrinsic clearance (microsomal CLint) in data set [1] (microsomes) below 3 µL/min/mg. In [2], this compound displayed a hepatocyte CLint of 7 µL/min/1e6 cells.
`O=C(NC[C@@H](O)CN1CCC(Oc2ccc(Cl)c(Cl)c2)CC1)c1c[nH]c(=O)c2cc(F)ccc12` gave a distribution volume (Vd) in data set [3] of 6.4 L/kg. Also, the logD in [4] amounted to 3.2.
For `CNS(=O)(=O)c1ccc2c(C(=O)NC[C@@H](O)CN3CCC(Oc4ccc(Cl)c(Cl)c4)CC3)c[nH]c(=O)c2c1`, the microsomal CLint in data set [1] (liver microsomes) was determined as 14 µL/min/mg. Besides, the hepatocyte CLint in data set [2] is below 3 µL/min/1e6 cells. For the same compound, in data set [4], the logD came out at 2.8.
As to `Cc1cc(Cl)ccc1OC1CCN(C[C@H](O)CNC(=O)c2c[nH]c(=O)c3cc(S(C)(=O)=O)ccc23)CC1`, the microsomal CLint in data set [1] (liver microsomes) worked out at 14 µL/min/mg. The hepatocyte CLint in data set [2] was determined as 7 µL/min/1e6 cells. The compound further registered a pH-dependent lipophilicity (logD) in data set [4] of 2.4.
The corresponding values for `CN(C)S(=O)(=O)c1ccc2c(C(=O)NC[C@@H](O)CN3CCC(Oc4ccc(Cl)c(Cl)c4)CC3)c[nH]c(=O)c2c1` are 86 µL/min/mg, 10 µL/min/1e6 cells and 3.1.
On to `O=C(NC[C@@H](O)CN1CCC(Oc2ccc(Cl)c(Cl)c2)CC1)c1c[nH]nc1C(F)(F)F`, for which the microsomal CLint in [1] (liver microsomes) was below 3 µL/min/mg. This compound also returned a hepatocyte CLint in [2] of 3 µL/min/1e6 cells. Further, the clearance in [5] came out at 22 mL/min/kg. Besides, the bioavailability in data set [6] was determined as 36%. Besides, in [7], the half-life is 6 h.
In data set [1] (liver microsomes), `Cc1cc(Cl)ccc1OC1CCN(C[C@H](O)CNC(=O)c2c[nH]c(=O)c3ccc(S(C)(=O)=O)cc23)CC1` showed an intrinsic metabolic clearance (microsomal CLint) of 7 µL/min/mg. In [2], this compound showed a hepatocyte CLint of 8 µL/min/1e6 cells.
For the compound `Cc1cc(Cl)ccc1OC1CCN(C[C@H](O)CNC(=O)c2c[nH]c(=O)cc2C(F)(F)F)CC1`, the microsomal CLint in data set [1] (liver microsomes) is 3 µL/min/mg. This compound had an intrinsic metabolic clearance (hepatocyte CLint) in data set [2] below 3 µL/min/1e6 cells.
In the case of `Cn1cc(C(=O)NC[C@@H](O)CN2CCC(Oc3ccc(Cl)c(Cl)c3)CC2)c(C(F)(F)F)cc1=O`, the microsomal CLint in data set [1] (microsomes) was determined as 5 µL/min/mg. This compound displayed a hepatocyte CLint in data set [2] below 3 µL/min/1e6 cells. The clearance in [5] stood at 9 mL/min/kg; in data set [9] it was 8 mL/min/kg. For the same compound, the bioavailability in data set [8] stood at 81%; in data set [6], 53%. The half-life in data set [7] is 9.7 h; in data set [10] it was 10.8 h.
In data set [1] (liver microsomes), `NC(=O)c1c(OC2CCN(C[C@H](O)CNC(=O)c3c[nH]c(=O)c4ccccc34)CC2)ccc(Cl)c1Cl` had a microsomal CLint of 18 µL/min/mg. The same compound gave a hepatocyte CLint in [2] of 2 µL/min/1e6 cells. In data set [6], this compound came in with a bioavailability below 5%. The same compound yielded a CL in [11] of 0.0086 mL/min/kg. In [4], this compound registered a logD of 1.5.
Consider `O=C(NC[C@@H](O)CN1CCC(Oc2ccc(Cl)c(Cl)c2)CC1)c1c[nH]c(=O)c2cc(S(=O)(=O)NCCO)ccc12`, for which the hepatocyte CLint in data set [2] was 5 µL/min/1e6 cells.
In turn, `O=C(NC[C@@H](O)CN1CCC(Oc2ccc(Cl)c(Cl)c2)CC1)c1c[nH]nc1C1CC1` displayed an intrinsic metabolic clearance (microsomal CLint) in data set [1] (liver microsomes) of 9 µL/min/mg. Moreover, the intrinsic metabolic clearance (hepatocyte CLint) in [2] was below 3 µL/min/1e6 cells.
In turn, `CS(=O)(=O)c1ccc2c(C(=O)NC[C@@H](O)CN3CCC(Oc4ccc(Cl)c(Cl)c4)CC3)c[nH]c(=O)c2c1` came in with a hepatocyte CLint in [2] of 3 µL/min/1e6 cells.
As to `O=C(NC[C@@H](O)CN1CCC(Oc2ccc(Cl)c(Cl)c2)CC1)c1c[nH]c(=O)c2c(F)cccc12`, the microsomal CLint in data set [1] (liver microsomes) was 6 µL/min/mg. This compound yielded an intrinsic metabolic clearance (hepatocyte CLint) in data set [2] below 3 µL/min/1e6 cells. In [4], the log distribution coefficient (logD) amounted to 3.2.
In data set [1] (microsomes), `Cc1cc(Cl)ccc1OC1CCN(C[C@H](O)CNC(=O)c2c[nH]nc2C(F)(F)F)CC1` returned a microsomal CLint below 3 µL/min/mg. The intrinsic clearance (hepatocyte CLint) in data set [2] is 5 µL/min/1e6 cells.
`O=C(NC[C@@H](O)CN1CCC(Oc2ccc(Cl)c(Cl)c2)CC1)c1c[nH]c(=O)c2cc(S(=O)(=O)NC3CC3)ccc12`: the microsomal CLint in [1] (liver microsomes) stood at 21 µL/min/mg. For the same compound, the intrinsic clearance (hepatocyte CLint) in data set [2] was found to be 6 µL/min/1e6 cells.
For the compound `O=C(NC[C@@H](O)CN1CCC(Oc2ccc(Cl)c(Cl)c2)CC1)c1c[nH]c(=O)c2ccc(F)cc12`, the intrinsic metabolic clearance (microsomal CLint) in data set [1] (liver microsomes) was 8 µL/min/mg. In [2], the hepatocyte CLint was 5 µL/min/1e6 cells. This compound also showed a logD in [4] of 3.9.
Turning to `Cc1c(Cl)ccc(OC2CCN(C[C@H](O)CNC(=O)c3c[nH]c(=O)c4ccc(S(C)(=O)=O)cc34)CC2)c1Cl`, the microsomal CLint in [1] (liver microsomes) is below 3 µL/min/mg. Further, in data set [2], the hepatocyte CLint is below 3 µL/min/1e6 cells. This compound also yielded a pH-dependent lipophilicity (logD) in [4] of 2.8.
With `Cc1c(Cl)ccc(OC2CCN(C[C@H](O)CNC(=O)c3c[nH]nc3C(F)(F)F)CC2)c1Cl`, the intrinsic metabolic clearance (microsomal CLint) in data set [1] (liver microsomes) is below 3 µL/min/mg. In addition, the hepatocyte CLint in data set [2] amounted to 6 µL/min/1e6 cells.
In the case of `CS(=O)(=O)c1ccc2c(C(=O)NC[C@@H](O)CN3CCC(Oc4ccc(C#N)c(Cl)c4)CC3)c[nH]c(=O)c2c1`, the logD in [4] came out at 1.4.
On to `CC1(O)CN(S(=O)(=O)c2ccc3c(C(=O)NC[C@@H](O)CN4CCC(Oc5ccc(Cl)c(Cl)c5)CC4)c[nH]c(=O)c3c2)C1`, for which, in data set [1] (liver microsomes), the intrinsic metabolic clearance (microsomal CLint) was 18 µL/min/mg. This compound had an intrinsic clearance (hepatocyte CLint) in data set [2] of 3 µL/min/1e6 cells. In [4], this compound displayed a logD of 2.5.
`Cc1c(Cl)ccc(OC2CCN(C[C@H](O)CNC(=O)c3c[nH]c(=O)cc3C(F)(F)F)CC2)c1Cl` returned a microsomal CLint in data set [1] (liver microsomes) of 6 µL/min/mg. Besides, the hepatocyte CLint in data set [2] stood at 3 µL/min/1e6 cells.
In data set [1] (liver microsomes), `N#Cc1ccc(OC2CCN(C[C@H](O)CNC(=O)c3c[nH]c(=O)c4ccccc34)CC2)cc1Cl` came in with an intrinsic clearance (microsomal CLint) of 22 µL/min/mg. In addition, the hepatocyte CLint in [2] was 10 µL/min/1e6 cells. The compound further showed a logD in data set [4] of 2.6.
Turning to `N#Cc1ccc(OC2CCN(C[C@H](O)CNC(=O)c3c[nH]c(=O)c4ccccc34)CC2)cc1`, the intrinsic clearance (microsomal CLint) in data set [1] (liver microsomes) was 18 µL/min/mg. In data set [2], the hepatocyte CLint is 6 µL/min/1e6 cells.
Take `NS(=O)(=O)c1ccc2c(C(=O)NC[C@@H](O)CN3CCC(Oc4ccc(Cl)c(Cl)c4)CC3)c[nH]c(=O)c2c1`: the microsomal CLint in [1] (liver microsomes) is below 3 µL/min/mg. The compound also had a hepatocyte CLint in data set [2] below 3 µL/min/1e6 cells.
With `Cc1cc(Cl)ccc1OC1CCN(C[C@H](O)CNC(=O)c2c[nH]c(=O)c3cc(F)ccc23)CC1`, the intrinsic metabolic clearance (microsomal CLint) in data set [1] (liver microsomes) was 9 µL/min/mg. The intrinsic metabolic clearance (hepatocyte CLint) in data set [2] was below 3 µL/min/1e6 cells.
`Cc1cc(Cl)ccc1OC1CCN(C[C@H](O)CNC(=O)c2c[nH]c(=O)c3c(F)cccc23)CC1` came in with a microsomal CLint in data set [1] (liver microsomes) of 9 µL/min/mg. This compound also registered a hepatocyte CLint in [2] of 7 µL/min/1e6 cells. In data set [4], this compound showed a logD of 3.
As to `O=C(NC[C@@H](O)CN1CCC(Oc2ccc(Cl)c(Cl)c2)CC1)c1c[nH]c(=O)c2ccccc12`, the bioavailability was 40% in data set [8] and 11% in data set [6].
In turn, `O=C(NC[C@@H](O)CN1CCC(Oc2ccc(Cl)c(Cl)c2)CC1)c1c[nH]c(=O)cc1C(F)(F)F` came in with an intrinsic clearance (microsomal CLint) in [1] (liver microsomes) below 3 µL/min/mg. This compound also yielded a hepatocyte CLint in data set [2] of 4 µL/min/1e6 cells. Besides, the bioavailability in data set [8] was 63%; in [6], below 10%.
Take `Cc1c(Cl)ccc(OC2CCN(C[C@H](O)CNC(=O)c3c[nH]c(=O)c4cc(S(C)(=O)=O)ccc34)CC2)c1Cl`: the microsomal CLint in data set [1] (liver microsomes) was 13 µL/min/mg. Further, the hepatocyte CLint in data set [2] came to 12 µL/min/1e6 cells. Besides, the pH-dependent lipophilicity (logD) in data set [4] stood at 2.8.

The values are drawn from ChEMBL document CHEMBL2203219, “Discovery and evolution of phenoxypiperidine hydroxyamide dual CCR3/H₁ antagonists. Part II: optimising in vivo clearance” (Bioorg Med Chem Lett, 2012).
